Patent US20080279932A1, “Compounds” (priority 2005, published 2008)
Marks after values point to notes of the source that are not given here.

Columns and labels:
[1] = Stability of bulk material with excipients for 2 weeks at 50 C and 50 C/75% r.h. (HPLC assay); assay type: physicochemical; conditions: for HPLC Assay Results (External Standard): in % (unit assumed); for stability compared with the free base of vildagliptin: bulk and excipient mixtures, 2 weeks
Procedure: Stability of Bulk Material with Excipients for 2 week at 50 C and 50 C/75% r.h.
Procedure for Dry Mixtures: 25 mg of free base drug substance was weighed into sample tube and approximately 2.5 grams of mixture A, or 25 mg of Lactose was added to the tube. Weight adjustments were made for each salt.
(§1) One sample preparation per condition and one injection per sample.
Controls: A control of the drug substance with the excipients will be prepared and analyzed as a time zero data point and to test the efficiency of extracting the drug substance from the excipients.
Mixture A: (oral) mannitol/Avicel PH 102/Cutina HR 57:38:5 (m/m/m)

Racemization study = assay type: physicochemical
Text: The free base in water chemically degraded and detection of racemization was not possible.

[2] = Dissociation constant (pKa's) of LAF237 free base and salt-forming acids; assay type: physicochemical; conditions: LAF237 free base
[3] = Forced decomposition (HPLC assay, 3 days); assay type: physicochemical; conditions: for HPLC Assay Results (External Standard): in % (unit assumed)
Procedure: Procedure: Weigh 25 mg drug substance to a test tube and add 5 ml of appropriate solution.
as §1
Dilute sample to 1 mg/mL with water for HPLC analysis.
All salt forms were tested in bulk and water.
If the newer gradient method is selected then the order of elution of the acid degradation product and the amide degradation product are reversed, with the acid degradation product eluting first about 1.8 minutes and the amide degradation product eluting second about 2.5 minutes. Only the extended stability (3 month) samples were analyzed with the gradient HPLC method.

[4] = cited from earlier work; for Dissociation Constant (pKa's), first value: first pKa of the salt-forming acid (counter-ion); for Dissociation Constant (pKa's), second value: second pKa of the salt-forming acid (counter-ion)
[5] = 1% in mixture A Dry Granulated, 2 weeks at 50/75% r.h.
[6] = 1% in mixture A Dry Granulated, 2 weeks at 50° C.
[7] = 1% in mixture A Dry Granulated, t0
[8] = 50% in Lactose Dry Granulated, 2 weeks at 50/75% r.h.
[9] = 50% in Lactose Dry Granulated, 2 weeks at 50° C.
[10] = 50% in Lactose Dry Granulated, t0

Compound | HPLC Assay Results (External Standard) [1, 5] | HPLC Assay Results (External Standard) [1, 6] | HPLC Assay Results (External Standard) [1, 7] | HPLC Assay Results (External Standard) [1, 8] | HPLC Assay Results (External Standard) [1, 9] | HPLC Assay Results (External Standard) [1, 10] | HPLC Assay Results (External Standard) ([1]; Bulk, 2 weeks at 50/75% r.h.) | HPLC Assay Results (External Standard) ([1]; Bulk, 2 weeks at 50° C.) | HPLC Assay Results (External Standard) ([1]; Bulk, t0) | racemization (Racemization study; drug in the solid state) | HPLC Assay Results (External Standard) ([3]; Bulk, 80° C. (3-day)) | HPLC Assay Results (External Standard) ([3]; Bulk, ambient (3-day)) | HPLC Assay Results (External Standard) ([3]; H2O, 80° C. (3-day)) | HPLC Assay Results (External Standard) ([3]; H2O, ambient (3-day)) | stability compared with the free base of vildagliptin [1] | stability in water ([3]; water at 80° C. after 3 days) | Dissociation Constant (pKa's), first value [4] | Dissociation Constant (pKa's), second value [4] | other results
N#C[C@@H]1CCCN1C(=O)CNC12CC3CC(CC(O)(C3)C1)C2 [Free Base, (S)-1-[(3-hydroxy-1-adamantyl)amino]acetyl-2-cyano-pyrrolidine, reference compound] | 83.8* | 94.2* | 98.1* | 96.5 | 98.9 | 100.7 | 98.7 | 98.6 | 100.0 | no sign of racemization | 100.3 | 99.9 | 7.5 | 98.4 |  |  |  |  | % loss in assay value ([1]; in the presence of mixture A): large losses; pKa [2]: 7.86; stability in water ([3]; free base in water, after 3 days): complete degradation; LAF237 remaining ([3]; peroxide sample, after three days): 3%; stability under acidic conditions ([3]; room temperature): good stability
Hydrochloride Salt of Vildagliptin [Example 1] | 95.5 | 96.6 | 97.3 | 98.7 | 99.7 | 100.8 | 99.6 | 100.5 | 100.7 | no sign of racemization | 98.8 | 98.8 | 95.3 | 99.9 | better stability | remain stable |  |  | racemization (Racemization study; in solution in water, 80° C.): no sign of racemization; racemization (Racemization study; in solution in water, ambient): no sign of racemization
Hydrogen Fumarate Salt of Vildagliptin [Example 4] | 96.0 | 94.6 | 96.1 | 98.2 | 98.9 | 99.5 | 98.9 | 99.0 | 104.0 |  | 98.8 | 102.2 | 98.9 | 101.9 | better stability | remain stable | 3.03 | 4.47 | 
tartarate |  |  |  |  |  |  |  |  |  |  |  |  |  |  |  |  | 2.98 | 4.34 | 
